{"source": "paper PMC6439253", "about": "“Complete NMR chemical shift assignments of odorant binding protein 22 from the yellow fever mosquito, Aedes aegypti, bound to arachidonic acid” (Biomolecular Nmr Assignments, 2019)", "target": "T1, AeOBP22 (odorant binding protein 22) (Aedes aegypti, UniProt Q1HRL7)", "T1 construct": "mature form, residues 17-138, signal peptide (1-16) removed, added N-terminal initiator Met, no tags (123 residues); monomer; 13C/15N labelled for NMR", "T1 sequence (Q1HRL7 17-138)": "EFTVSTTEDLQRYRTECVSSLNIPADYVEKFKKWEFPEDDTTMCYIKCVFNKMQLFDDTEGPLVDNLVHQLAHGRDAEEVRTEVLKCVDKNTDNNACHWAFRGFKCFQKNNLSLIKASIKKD", "assay": "fluorescence-based binding assay (preliminary); binding confirmed by NMR"}
{"compound": "CCCCC/C=C\\C/C=C\\C/C=C\\C/C=C\\CCCC(=O)O", "note": "[arachidonic acid]", "values": [{"measurement": "Kd", "result": "~0.23", "unit": "µM"}]}
